Results published in patent US5968526A, “T cell epitopes of the major allergens from Dermatophagoides (house dust mite)” (Immulogic Pharamaceutical Corporation, priority 1995, dated 1999).

What was measured:
Type in all cases: cell-based, human
[1] = test system: T cell lines primed in vitro to Der p II; test: secondary proliferation of Der p II-primed T cell lines (Examples VIII, X, XI); details: for T cell reactivity: overlapping Der p II peptides, FIG. 9; for T cell response: patient 348, native Der p II primed, data not shown
Procedure, shortened: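 PBMC from house dust mite-allergic patients primed in vitro with native or recombinant Der p II at 20 μg/ml (or recombinant at 3 μg/ml), with x-irradiated (3500 Rads) autologous PBMC as antigen-presenting cells. Lines then challenged with Der p II-derived peptides; proliferation expressed as S.I., ranked sum scoring top three responses 3, 2, 1.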

[2] = test system: T cell lines primed in vitro to Der f II; test: secondary proliferation of Der f II-primed T cell lines (Examples IX, X, XI); details: for T cell response to Der p II peptides: Der f II primed, FIG. 11
Experimental: Experiments similar to those of Example V were performed to determine the T cell-reactive areas of the Der f II protein. For example, PBMC from house dust mite-allergic patient 384 were stimulated in vitro with purified recombinant Der f II and the T cell line was then challenged in the presence of x-irradiated (25,000 Rads) autologous Epstein-Barr virus transformed B cells as antigen presenting cells with various overlapping […]. The results of this proliferation assay indicate that T cells from this particular patient respond well to peptides DF II-1, DF II-2, DF II-3.1, DF II-4.5, DF II-15, DF II-16, and DF I-19.1 (data not shown).
The above procedure was followed with 10 patients, except in individual cases, T cell lines were primed by stimulating the patient PBMC with 20 μg/ml or 3 μg/ml purified native Der f II, and were assayed in the presence of x-irradiated (3500 Rads) autologous PBMC as antigen-presentingcells.
A study similar to that described in Example VII was carried out to determine the T cell cross-reactivity of the Der p II and Der f II proteins. T cells primed with the Der f II protein were challenged with various Der f II peptides and a set of substantially matching Der p II peptides. […]

[3] = test system: T cell lines primed in vitro to Der p I; test: secondary proliferation of Der p I-primed T cell lines (Examples V, VII, XI); details: for T cell reactivity: overlapping Der p I peptides
Procedure, shortened: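 PBMC were primed with native or recombinant Der p I (10 or 20 μg/ml) for 7 days, then expanded with IL-2 and IL-4. Resting T cells (2×10^4) were cultured 3 days with irradiated autologous EBV-B cells or PBMC and titrated protein or peptides, then pulsed 16 h with 1 μCi ³H-thymidine. S.I. was peak-response CPM over medium-only CPM, with S.I. ≥2.0 scored positive.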

[4] = test system: T cell cultures reactive with Der p I from house dust mite-allergic subjects; test: secondary T cell proliferation assay, Group I (Der p I) overlapping and candidate/unique peptides; percent of T cell reactivity; details: patient 1733; highest S.I. ≥2.0 recorded
Description: To determine whether a peptide (candidate peptide) or a combination of candidate peptides are likely to comprise a sufficient percentage of the T cell reactivity of house dust mite protein allergens, to induce T cell nonresponsiveness in a substantial percentage of a population of individuals sensitive to house dust mite allergen, an algorithm can be used. In accordance with one such algorithm, a set of overlapping peptides is produced by systematically dividing the protein allergen(s) of interest into al least two overlapping peptide regions of desired lengths (e.g., of about 12-30 amino acid residues in length, preferably not longer than about 25 amino acid residues in length with about 5-15 amino acid residues of overlap). This division into peptide regions can be arbitrary, can be made according to an algorithm, or can be wholly or partially based on regions of house dust mite Group I and/or Group II protein allergens known to comprise at least one T cell epitope. Preferably, at least 50% of the entire house dust mite protein allergen sequence and more preferably, the entire house dust mite protein allergen sequence is divided into two or more peptides. A human T cell stimulation index is determined for each of the peptides in an in vitro T cell proliferation assay as described herein for each individual tested in a population of individuals sensitive to the protein antigen. For example both WO93/08279 and WO94/24281 disclose T cell studies with overlapping peptides derived from Der p I, Der p II, Der f I and Der f II. A candidate peptide or combination of candidate peptides is selected based, at least in part, on the mean human T cell stimulation index of the candidate peptide in the set of peptides tested and the positivity index of the candidate peptide in the set of peptides tested (see, FIGS. 3 and 4). The human T cell stimulation index for the candidate peptide(s) is summed. For each individual, the human T cell stimulation index for the candidate peptide(s) is divided by the sum of the human T cells stimulation indices of the remaining peptides in the set of peptides tested to determine a percent of T cell reactivity as shown below:
Alternatively, the presence of T cell epitopes in the candidate peptide dependent on amino acids residues in an overlapping peptide located at either the N-terminus or C-terminus of the candidate peptide in the amino acid sequence of the protein antigen, but which epitopes are not present in the candidate peptide can be considered in calculating the percent of T cell reactivity in the candidate peptide by use of the following formula: [formula]
In this formula, "NT flanking peptide" refers to a peptide which comprises amino acid residues which overlap with amino acid residues located at the N-terminus of the candidate peptide in the amino acid sequence of the protein antigen from which the peptide is derived; "CT flanking peptide" refers to a peptide which comprises amino acid residues which overlap with amino acid residues located a the C-terminus of the candidate peptide in the amino acid sequence of the protein antigen from which the peptide is derived. In this calculation stimulation indices for the candidate peptide, the N-terminal flanking peptide and the C-terminal flanking peptide are added and divided by the sum total of the stimulation indices for the entire set of overlapping peptides obtain a percent of T cell reactivity for the candidate peptide. If a combination of two or more candidate peptides is selected each of which contains amino acid residues which overlap, this calculation cannot be used to determine a percent of T cell reactivity for each candidate peptide separately. However, a total percent of T cell reactivity for the combination of candidate peptides can be obtained. In this situation, the stimulation indices for all of the candidate peptides which overlap is included in the calculation. […]

[5] = test system: PBMC from mite-allergic patient; test: primary T cell (PBMC) proliferation, mite-allergic patient, tritiated thymidine; details: medium 1071 ± 30
Experimental: Peripheral blood mononuclear cells (PBMC) were purified by Ficoll-Hypaque centrifugation of a peripheral blood specimen from mite-allergic patient and were assayed for proliferation in response to various antigens, i.e., affinity-purified Der p I, affinity purified Der p II, various Der p I and Der p II peptides. For assay, 5×10^4 PBMC were cultured in triplicate microwells for 7 days at 37° C. in the presence of various concentrations of antigen in 200 μl RPMI-1640 containing 5% human AB serum. Each well then received 1 μCi tritiated thymidine for 16 hours. The counts incorporated were collected onto glass fiber filters and processed for liquid scintillation counting. […] The CPM +/- standard deviation are shown. The stimulation index of each response (S.I.) is the ratio of the ^3 H-thymidine CPM incorporated by the cells in response to antigen divided by the ^3 H-thymidine CPM incorporated by cells in medium only. […] Thus, these peptides contain Der p I or Der p II T cell epitopes recognized by T cells from this particular allergic patient.

[6] = test system: T cell lines primed in vitro with Der p II; test: T cell proliferation with fine map and modified Group II peptides (Example XIV); details: FIGS. 32a-b
Experimental: Long term T cell lines were established by stimulation of 2×10^6 PBL/ml in bulk cultures of complete medium (RPMI-1640, 2 mM L-glutamine, 100 U/ml penicillin/streptomycin, 5×10^-5 M 2-mercaptoethanol, and 10 mM HEPES supplemented with 5% heat inactivated human AB serum) with 30 μg/ml of purified native Der p I or Der p II for 5-6 days at 37° C. in a humidified 5% CO2 incubator to select for house dust mite protein allergen reactive T cells. This amount of priming antigen was determined to be optimal for the activation of T cells from house dust mite allergic patients. Viable cells were purified by LSM centrifugation and cultured in complete medium supplemented with 5 units recombinant human IL-2/ml and 5 units recombinant human IL-4/ml for up to three weeks until the cells no longer responded to lymphokines and were considered "rested". The ability of the T cells to proliferate to selected peptides, purified Der p I or Der p II, or positive (PHA) controls or negative controls (medium only) was then assessed. For assay, 2×10^4 rested cells were restimulated in the presence of 2×10^4 autologous Epstein-Barr virus (EBV)-transformed B cells (prepared as described below) (gamma-irradiated with 25,000 RADS) or with 5×10^4 autologous PBMs (gamma-irradiated with 3500 RADS), with 2-50 μg/ml of purified native Der p I or Der p II in a volume of 200 μl complete medium in duplicate or triplicate wells in 96-well round bottom plates for 3 days. Each well then received 1 μCi tritiated thymidine for 16-20 hours. The counts incorporated were collected onto glass fiber filter mats and processed for liquid scintillation counting. […] The titrations were used to optimize the dose of peptides in T cell assays.
The maximum response in a titration of each peptide is expressed as the stimulation index (S.I.). The S.I. is the counts per minute (CPM) incorporated by cells in response to peptide, divided by the CPM incorporated by cells in medium only. […] The positive results were used in calculating mean stimulation indices for each peptide for the individual patient tested.
The above procedure was followed with 18 patients in the studies using peptides derived from Der p I and Der f I (FIGS. 31a-b), and 21 patients in the studies with Der p II peptides (FIGS. 32a-b). Individual patient results were used in calculating the mean S.I. for each peptide if the patient responded to the Der p I or Der p II protein at an S.I. of 2.0 or greater and the patient responded to at least one peptide derived from a house dust mite allergen at an S.I. f 2.0 or greater. A summary of positive experiments from the patients tested is shown in FIGS. 32a and 32b and FIGS. 33a and 33b. The bars represent the positivity index. […] In parenthesis above each bar are the mean stimulation indices for each peptide or protein for the group of patients tested.
Autologous EBV-transformed cell lines were γ-irradiated with 25,000 Rad and used as antigen presenting cells in secondary proliferation assays and secondary bulk stimulations. These EBV-transformed cell lines were made by incubating 5×10^6 PBL with 1 ml of B-59/8 Marmoset cell line (ATCC CRL1612, American Type Culture Collection, Rockville, Md.) conditioned medium in the presence of 1 μg/ml phorbol 12-myristate 13-acetate (PMA) at 37° C. for 60 minutes in 12×75 mm polypropylene round-bottom Falcon snap cap tubes (Becton Dickinson Labware, Lincoln Park, N.J.). These cells were then diluted to 1.25×10^6 cells/ml in RPMI-1640 as described above except supplemented with 10% heat-inactivated fetal bovine serum and cultured in 200 μl aliquots in flat bottom culture plates until visible colonies were detected. They were then transferred to larger wells until the cell lines were established.

DF II-19.1: Der f II peptide (VVTVKLVGDNGVLACAIATHAKIRD)
T cell response to Der f II peptides ([1]; Der p II primed, 26 positive experiments, FIG. 12): respond significantly | T cell reactivity ([2]; overlapping Der f II peptides, 10 positive experiments, FIG. 10): significant areas of T cell reactivity

DP I-6.1: Der p I peptide (YPPNANKIREALAQTHSAIAVIIG)
T cell reactivity ([3]; 33 positive experiments): significant regions of T cell reactivity | T cell stimulation index (S.I.) [4]: 2.1

DP I-7.1: Der p I peptide (AQTHSAIAVIIGIKDLDAFRHYDGRT)
T cell reactivity ([3]; 33 positive experiments): significant regions of T cell reactivity | T cell stimulation index (S.I.) [4]: 2.2

DP I-9: Der p I peptide (IIQRDNGYQPNYHAVNIVGYSNA)
T cell reactivity ([3]; 33 positive experiments): significant regions of T cell reactivity | T cell stimulation index (S.I.) [4]: 2.4

DP I-12.1: Der p I peptide, native sequence (ELVDCASQHGCHGDTIPRGIE)
difference in mean S.I. or percentage of positive responses, original vs additional (native sequence) peptides ([3]; DP I-11/12 vs DP I-11.1/12.1): no significant difference | T cell stimulation index (S.I.) [4]: 2.2

DP I-16: Der p I peptide (HAVNIVGYSNAQGVDYWIVRNS)
T cell reactivity ([3]; 33 positive experiments): significant regions of T cell reactivity | T cell stimulation index (S.I.) [4]: 2.0

DP I-17: Der p I peptide (GDNGYGYFAANIDLMMIEEYPYVVIL)
T cell stimulation index (S.I.) [4]: 0

DP I-22.2: Der p I peptide (VAATESAYLAHRNQSLDLAEQELVD)
T cell response to selected Der p I peptides ([3]; 33 positive experiments, FIG. 13): respond significantly | T cell stimulation index (S.I.) [4]: 3.1

DP II-1: Der p II peptide (DQVDVKDCANHEIKKVLVPG)
T cell reactivity ([1]; 26 positive experiments): significant T cell reactivity | T cell response [1]: responds well | T cell response to Der p II peptides ([2]; 10 positive experiments): respond significantly

DP II-4: Der p II peptide (QLEAVFEANQNTKTAKIEIKASIDG)
T-cell reactivity (DPII-22 series development) ([1]; Der p II T-cell map and analogs): high T-cell reactivity | T cell reactivity ([1]; 26 positive experiments): significant T cell reactivity | T cell response to Der p II peptides ([2]; 10 positive experiments): respond significantly | CPM ± S.D. ([5]; 10 μg/ml): 2126 ± 25 CPM | CPM ± S.D. ([5]; 30 μg/ml): 1979 ± 94 CPM | CPM ± S.D. ([5]; 100 μg/ml): 2314 ± 116 CPM

DP II-7: Der p II peptide (CPLVKGQQYDIKYTWNVPKIAPKSENV)
T cell reactivity ([1]; 26 positive experiments): significant T cell reactivity | T cell response [1]: responds well | T cell response to Der p II peptides ([2]; 10 positive experiments): respond significantly

DP II-25: Der p II peptide (TVKVMGDDGVLACAIATHAKIRD)
T cell response, Group II peptides [6]: positive T cell studies | stimulation index / response to selected Der p II peptides ([2]; 10 patients, FIG. 18a): highest stimulation index
